The source of these data is ChEMBL document CHEMBL1128755, “LTD4 Receptor binding activity of novel pyridine chromanols: qualitative correlation with pKa” (Bioorg Med Chem Lett, 1995).

Bounds are passed on as bounds.

The nature of data set [1]: Association constant (pKa) was determined. It is filed as physicochemical.
Data set [2] deals with T1, Cysteinyl leukotriene receptor 1 (Cavia porcellus, UniProt Q2NNR5).
T1 sequence (Q2NNR5 whole entry): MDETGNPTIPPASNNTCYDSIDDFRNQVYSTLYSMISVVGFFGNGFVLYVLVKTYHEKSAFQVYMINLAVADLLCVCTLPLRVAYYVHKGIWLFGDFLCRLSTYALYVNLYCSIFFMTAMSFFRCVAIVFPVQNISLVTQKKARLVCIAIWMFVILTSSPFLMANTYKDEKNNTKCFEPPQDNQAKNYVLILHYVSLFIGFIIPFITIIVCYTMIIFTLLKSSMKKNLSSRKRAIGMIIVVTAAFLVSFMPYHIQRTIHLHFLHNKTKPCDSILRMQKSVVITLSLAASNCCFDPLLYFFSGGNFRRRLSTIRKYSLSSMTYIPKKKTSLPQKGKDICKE
Kind of data set: Compound was tested for the inhibition of [3H]leukotriene D4 binding to LTD4 receptor in guinea pig lung membranes. It is filed as cell membranes, Membrane.

Data set [3] can be described thus: Partition coefficient (logP). Type of data set: physicochemical. Particulars: octanol/water.

`Cc1cccc(COc2ccc3c(c2)[C@@H](O)[C@@H](Cc2cccnc2)CO3)n1` displayed a pKa in data set [1] of 5.96. This compound also had a Ki in data set [2] greater than 100 µM. Also, the logP in data set [3] turned out to be 1.11.

On to `Cc1nc(COc2ccc3c(c2)[C@@H](O)[C@@H](Cc2cccnc2)CO3)ccc1[N+](=O)[O-]`, for which, in data set [1], the pKa stood at 1.52. The compound further returned a Ki in data set [2] of 0.24 µM. This compound also showed a logP in data set [3] of 0.99.

On to `O[C@@H]1c2cc(OCc3ccc4ccccc4n3)ccc2OC[C@@H]1Cc1cccnc1`, for which the pKa in data set [1] was determined as 4.81. In data set [2], this compound showed a Ki of 1.64 µM. For the same compound, the logP in data set [3] came to 2.04.

Turning to `c1ccc2ncccc2c1` [QUINOLINE], in data set [1], the pKa is 4.81.

Compound `O[C@@H]1c2cc(OCc3ccccn3)ccc2OC[C@@H]1Cc1cccnc1` yielded a pKa in data set [1] of 5.25. For the same compound, the Ki in data set [2] is greater than 100 µM. Moreover, the logP in data set [3] came out at 0.66.

Turning to `O[C@@H]1c2cc(OCc3cccc(Cl)n3)ccc2OC[C@@H]1Cc1cccnc1`, in data set [1], the pKa was found to be 0.72. In data set [2], this compound registered a Ki of 23.4 µM. For the same compound, the logP in data set [3] was determined as 1.27.

For `Cc1nc(COc2ccc3c(c2)[C@@H](O)[C@@H](Cc2cccnc2)CO3)ccc1Br`, the pKa in data set [1] amounted to 3.55. Besides, in data set [2], the Ki was determined as 1.56 µM. In data set [3], this compound displayed a logP of 2.09.

In turn, `O[C@@H]1c2cc(OCc3cccc(F)n3)ccc2OC[C@@H]1Cc1cccnc1` showed a pKa in data set [1] of -0.44. The same compound gave a Ki in data set [2] greater than 100 µM. Besides, the logP in data set [3] was 0.84.

What is called pKa is the negative logarithm of the acid dissociation constant. In general, Ki refers to a dissociation constant, usually derived from enzyme kinetics or from competition with a known ligand. Low values mean tighter binding, high ones weaker binding. As a reminder, the logP is a log measure of how a compound divides between an organic and an aqueous phase. Read a low logP as lower lipophilicity.
